Like-named read-outs stand apart in the source and are kept apart here.

Experiment [1] addresses T1, 5-HT1A binding site (Rattus norvegicus, UniProt P19327).
T1 sequence (P19327 1-422): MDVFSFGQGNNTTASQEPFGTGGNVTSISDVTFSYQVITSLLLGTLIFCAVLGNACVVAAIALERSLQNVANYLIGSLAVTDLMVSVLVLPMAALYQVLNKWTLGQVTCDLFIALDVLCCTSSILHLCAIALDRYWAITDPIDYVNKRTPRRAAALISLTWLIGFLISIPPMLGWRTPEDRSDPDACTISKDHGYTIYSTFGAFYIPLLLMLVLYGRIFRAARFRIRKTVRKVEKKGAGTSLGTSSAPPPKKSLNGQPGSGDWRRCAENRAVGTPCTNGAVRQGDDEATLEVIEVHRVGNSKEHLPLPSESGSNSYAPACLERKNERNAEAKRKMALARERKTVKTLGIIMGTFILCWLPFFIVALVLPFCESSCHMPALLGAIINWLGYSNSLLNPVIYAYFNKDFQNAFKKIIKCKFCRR

Experiment [2] concerns the target T2, presynaptic 5-HT1A receptors (Rattus norvegicus, UniProt P19327).
T2 construct: 5-HT release in the hippocampus using in vivo microdialysis; from tissue; host or cells: brain of the living animal
T2 sequence (P19327 1-422): T1 sequence (P19327 1-422)
In words: Procedure (C)(a): electrophysiological monitoring of firing rate of serotonin neurones. In kind it is in vivo. The following applies: iv, read-out: ID50 (neuronal firing rate). The method, then: (§1) The activation of presynaptic 5-HT1A receptors results in the inhibition of serotonin neurones which can be quantified in two ways:
(a) Electrophysiologically monitoring the activity of the neurones to measure their firing rate by the method of H. J. Haigler and G. K. Aghajanian, J. Pharmacol. Exp. Therap., 1974, 188, 688. An intravenous ID50 dose is determined. The agonist.

The target of experiment [3] is T1, 5-HT1A binding site. The experiment is described as follows: biochemical.
The target of experiment [4] is D2 (Homo sapiens, UniProt P14416). In words: Procedure (B): affinity for D2 receptor sites. In kind it is binding. The following applies: for inhibition at 1 µM: 10^-6 M, read-out: % inhibition of binding at D2. How it is done:
The affinity of the compounds for D2 receptor sites is determined by the procedure of P. Seeman et al. J. Neurochem. 1984, 43, 221-235.

For experiment [5], the system named is 5-HT1D. In words: Procedure (B): affinity for 5-HT1D sites. It counts as binding. The method, then: The affinity for these sites is determined by the following procedures. […] C. Waeber et al., Naunyn-Schmniedebergs Arch. Pharmacol. 1988, 337, 595-601.
Experiment [6] has as its target T3, α2 (Rattus norvegicus, UniProt P22909).
T3 construct: from tissue
T3 sequence (P22909 1-465): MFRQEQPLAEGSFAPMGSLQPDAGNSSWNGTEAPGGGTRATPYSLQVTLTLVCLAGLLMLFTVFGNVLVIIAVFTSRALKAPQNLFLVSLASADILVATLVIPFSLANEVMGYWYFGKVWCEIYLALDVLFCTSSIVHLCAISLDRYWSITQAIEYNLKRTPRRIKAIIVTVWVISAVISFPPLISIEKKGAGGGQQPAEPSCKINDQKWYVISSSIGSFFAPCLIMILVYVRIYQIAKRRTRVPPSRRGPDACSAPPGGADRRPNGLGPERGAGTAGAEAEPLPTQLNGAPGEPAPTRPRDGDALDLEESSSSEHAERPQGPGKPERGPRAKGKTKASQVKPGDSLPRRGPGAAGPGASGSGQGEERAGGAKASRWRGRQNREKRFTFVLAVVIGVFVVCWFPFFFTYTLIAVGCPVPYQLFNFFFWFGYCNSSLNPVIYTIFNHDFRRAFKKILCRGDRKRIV
In words: Procedure (B): affinity for α2 sites. The settings on record: 10^-6 M; read-out: % inhibition of binding at α2. The method, then: The affinity for these sites is determined by the following procedures. α2 : D. J. Loftus et al. Life Sciences, 1984, 34, 61-69.

The test system of experiment [7] is β. The experiment is described as follows: Procedure (B): affinity for β sites. It counts as binding. The settings on record: 10^-6 M. The method, then:
The affinity for these sites is determined by the following procedures. β: L. T. Williams and R. J. Lefkowitz (1987) Receptor binding studies in adrenergic pharmacology, Raven Press, New York.

For experiment [8], the target named is T4, D1 (Rattus norvegicus, UniProt P18901).
T4 construct: from tissue
T4 sequence (P18901 whole entry): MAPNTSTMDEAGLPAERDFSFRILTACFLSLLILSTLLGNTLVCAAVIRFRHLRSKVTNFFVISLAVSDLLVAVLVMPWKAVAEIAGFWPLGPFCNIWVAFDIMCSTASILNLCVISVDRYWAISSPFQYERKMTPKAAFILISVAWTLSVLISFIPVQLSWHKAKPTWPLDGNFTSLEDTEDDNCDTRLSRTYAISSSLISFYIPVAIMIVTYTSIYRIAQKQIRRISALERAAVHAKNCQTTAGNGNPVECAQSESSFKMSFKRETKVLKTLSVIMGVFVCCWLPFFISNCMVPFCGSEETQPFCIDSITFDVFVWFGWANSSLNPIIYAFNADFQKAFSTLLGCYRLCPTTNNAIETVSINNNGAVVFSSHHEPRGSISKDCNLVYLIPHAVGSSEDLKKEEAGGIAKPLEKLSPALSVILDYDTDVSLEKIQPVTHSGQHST
The experiment is described as follows: Procedure (B): affinity for D1 sites. The following applies: 10^-6 M; read-out: % inhibition of binding at D1. The method, then: The affinity for these sites is determined by the following procedures. D1 : V Billard et al. Life Sciences. 1984, 35, 1885-1893.

The test system of experiment [9] is 5-HT2C. The experiment is described as follows: Procedure (B): affinity for 5-HT2C (previously 5-HT1C) sites. In kind it is binding. The following applies: 10^-6 M. The method, then:
(§2) In addition to showing selectivity over the D2, α1 and 5-HT2A sites it is also preferable that the compound is 25 fold selective (preferably 50 fold selective) over one or more of the 5-HT1B, 5-HT2C, 5-HT1D, 5-HT3, α2, β and D1 sites. The affinity for these sites is determined by the following procedures.
5-HT2C : B. J. Alexander et al., Br. J. Pharmac., 1986, 87, P 22. (The 5-HT2C site was previously known as the 5-HT1C site).

Experiment [10] deals with T5, 5-HT2A (Rattus norvegicus, UniProt P14842).
T5 construct: from tissue
T5 sequence (P14842 whole entry): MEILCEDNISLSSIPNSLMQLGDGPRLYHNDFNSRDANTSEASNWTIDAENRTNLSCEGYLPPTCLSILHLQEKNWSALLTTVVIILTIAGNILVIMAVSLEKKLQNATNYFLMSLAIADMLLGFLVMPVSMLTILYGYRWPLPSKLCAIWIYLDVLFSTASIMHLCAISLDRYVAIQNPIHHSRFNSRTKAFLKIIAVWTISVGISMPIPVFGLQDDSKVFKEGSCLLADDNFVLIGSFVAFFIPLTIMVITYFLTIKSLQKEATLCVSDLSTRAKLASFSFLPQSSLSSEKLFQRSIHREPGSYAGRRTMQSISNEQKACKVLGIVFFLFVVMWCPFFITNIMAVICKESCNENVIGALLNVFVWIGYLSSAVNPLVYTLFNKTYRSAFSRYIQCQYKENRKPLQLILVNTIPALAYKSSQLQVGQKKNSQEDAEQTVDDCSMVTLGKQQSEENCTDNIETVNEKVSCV
The experiment is described as follows: Procedure (B): affinity for 5-HT2A sites. The following applies: for inhibition at 1 µM: 10^-6 M, read-out: % inhibition of binding at 5-HT2A. It counts as binding. How it is done:
The affinity of the compound for 5-HT2A sites is determined by the procedure of R. A. Lyon et al. Mol. Pharmacol., 1987, 31, 194-199. (The 5-HT2A site was previously known as the 5-HT2 site).
(§3) Preferably the compound should be 50 fold selective.

For experiment [11], the target named is T6, 5-HT1B (Rattus norvegicus, UniProt P28564).
T6 construct: from tissue
T6 sequence (P28564 whole entry): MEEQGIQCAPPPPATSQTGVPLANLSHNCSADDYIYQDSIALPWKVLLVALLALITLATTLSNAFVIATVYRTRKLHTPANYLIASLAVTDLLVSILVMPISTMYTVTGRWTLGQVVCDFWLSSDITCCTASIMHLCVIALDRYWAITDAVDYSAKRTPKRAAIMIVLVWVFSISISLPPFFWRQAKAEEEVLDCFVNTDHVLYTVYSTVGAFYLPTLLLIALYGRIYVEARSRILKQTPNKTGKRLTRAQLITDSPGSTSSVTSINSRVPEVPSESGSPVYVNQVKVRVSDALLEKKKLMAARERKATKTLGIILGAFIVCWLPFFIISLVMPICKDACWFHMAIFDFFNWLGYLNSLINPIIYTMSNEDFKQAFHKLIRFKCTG
The experiment is described as follows: Procedure (B): affinity for 5-HT1B sites. The following applies: 10^-6 M; read-out: % inhibition of binding at 5-HT1B. The method, then:
as §2
5-HT1B : B. J. Alexander et al., Br. J. Pharmac., 1986, 87, P 22.

The test system of experiment [12] is α1. In words: Procedure (B): affinity for α1 sites. It counts as binding. The method, then:
The affinity of the compound for al sites is determined by the procedure of A. L. Morrow, et al. Mol. Pharmacol. 1986, 29, 321.
as §3

For experiment [13], the target named is T7, 5-HT1A receptor (Rattus norvegicus, UniProt P19327).
T7 construct: 5-HT1A receptor in rat hippocampal membranes; from tissue; host or cells: rat hippocampal membranes
T7 sequence (P19327 1-422): T1 sequence (P19327 1-422)
In words: Procedure (A): displacement of [^3 H]-8-OH-DPAT from the 5-HT1A receptor in rat hippocampal membranes. In kind it is binding. The settings on record: [^3 H]-8-OH-DPAT displacement, read-out: IC50 value according to procedure (A).

The target of experiment [14] is T2, presynaptic 5-HT1A receptors. In words: Procedure (C)(b): 5-HT release in the hippocampus using in vivo microdialysis. The settings on record: 1 mg/kg s.c.
Excerpt: as §1
Routledge, J. Gurling, I. K. Wright and C.

[15] abbreviates: concentration of 10 MM (so in the source).
Setting [16] is: concentration not clearly stated ("as were").

Sequence of D2 (P14416 whole entry): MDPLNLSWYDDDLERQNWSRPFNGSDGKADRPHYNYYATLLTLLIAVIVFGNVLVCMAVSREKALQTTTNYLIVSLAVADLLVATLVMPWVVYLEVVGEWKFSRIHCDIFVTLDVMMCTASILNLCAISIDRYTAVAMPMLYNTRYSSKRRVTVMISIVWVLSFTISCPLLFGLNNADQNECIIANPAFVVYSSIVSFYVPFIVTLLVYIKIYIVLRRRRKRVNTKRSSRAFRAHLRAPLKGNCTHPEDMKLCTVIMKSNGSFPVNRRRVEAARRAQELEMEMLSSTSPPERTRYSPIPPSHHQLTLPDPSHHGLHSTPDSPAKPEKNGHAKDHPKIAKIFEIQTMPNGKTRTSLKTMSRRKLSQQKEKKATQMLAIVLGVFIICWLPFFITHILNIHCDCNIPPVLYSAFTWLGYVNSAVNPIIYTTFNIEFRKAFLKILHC

With `CNC[C@H](O)c1cccc(O)c1` [L-phenylephrine], the “displacement of hippocampal [^3 H]WAY-100635 binding” value (shortened to “displacement of hippocampal”) in experiment [1] (setting [15]) is recorded as “ineffective”.

As for `COCCCC/C(=N\OCCN)c1ccc(C(F)(F)F)cc1` [fluvoxarnine], the “activity against [^3 H]WAY-100635 binding” value in experiment [1] (micromolar concentrations) was “inactive”.

Turning to `CCCN(CCC)C1CCc2cccc(O)c2C1` (centres unmarked) [Compound 8-OH-DPAT], the ED50 in experiment [2] turned out to be 1.9 µg/kg.

The term IC50 denotes the concentration that inhibits the measured activity by half. As for `NCCc1c[nH]c2ccc(C(N)=O)cc12` [Compound 5-CT], the half-inhibitory concentration (IC50) in experiment [3] fell in the range of 10 to 100 nM.

As a reminder, the inhibition is how much of the control response was suppressed. In the case of `COc1ccccc1N1CCN(CCN(C(=O)C2CCCCC2)c2ccccn2)CC1` [Compound (a), N-(2-(1-(4-(2-methoxyphenyl)piperazinyl))ethyl)-N-(2-pyridinyl)cyclohexanecarboxamide], the inhibition at 1 µM in [4], in experiment [6], in experiment [8], in [10] and in experiment [11] was under 50% in each case. The “% inhibition of binding at 5-HT1D” value in [5] (10^-6 M) is reported as under 50%. Moreover, the “% inhibition of binding at β” value in experiment [7] was under 50%. The “% inhibition of binding at 5-HT2C (5-HT1C)” value in experiment [9] is under 50%.

For the compound `CN(C)CCCN1c2ccccc2CCc2ccccc21` [imipramine], the “displacement of hippocampal” value in experiment [1] (setting [16]) was “ineffective”.

Regarding `CSc1ccc2c(c1)C(N1CCN(C)CC1)Cc1ccccc1S2` (centres unmarked) [methiothepin], the IC50 in experiment [3] was in the range of 10 to 100 nM.

`COc1ccccc1N1CCN(CC[C@@H](C(=O)N2CCCCCC2)c2ccccc2)CC1` [(c)]: the IC50 was 277 nM in experiment [4] (procedure (B)); 2240 nM in [5] (procedure (B)); 53 nM in experiment [12]; 0.3 nM in [13]; 106 nM in [10] (procedure (B)). The inhibition at 1 µM in experiment [6] was 53%; in experiment [8] it was under 50%; in experiment [11] it was under 50%. In addition, the “% inhibition of binding at β” value in experiment [7] is recorded as under 50%. The “% inhibition of binding at 5-HT2C (5-HT1C)” value in experiment [9] is listed as under 50%. Also, the “effect of pretreatment on 8-OH-DPAT-induced decrease in 5-HT release” value in experiment [14] is “completely blocked the 8-OH-DPAT-induced decrease in 5-HT release”. For the same compound, the “effect on 5-HT release / extracellular levels of 5-HT in the hippocampus” value in experiment [14] is on record as “no significant effect on extracellular levels of 5-HT in the hippocampus”.

In turn, `COc1ccccc1N1CCN(CCCCN2C(=O)c3ccccc3C2=O)CC1` [NAN 190] yielded an IC50 in experiment [3] of 10 to 100 nM.

Take `COc1ccccc1N1CCN(CC(C(=O)NC(C)(C)C)c2ccccc2)CC1` (racemic) [racemate, N-tert-butyl-3-[4-(2-methoxyphenyl)piperazinyl]-2-phenylpropanamide]: the inhibition at 1 µM in [4] turned out to be 14%; in experiment [6], 10%; in experiment [8], 20%; in [10], 37%; in experiment [11], 27%. In [13], the IC50 was found to be 34 nM.

Consider `CC(C)NCC(O)c1ccc(O)c(O)c1` (centres unmarked) [isoprenaline], for which the “displacement of hippocampal” value in [1] (setting [15]) is on record as “ineffective”.

In the case of `COc1ccccc1N1CCN(CC(C(=O)NC(C)(C)C)c2ccccc2)CC1` (single isomer, unassigned; (+)) [(+)-enantiomer, N-tert-butyl-3-[4-(2-methoxyphenyl)piperazinyl]-2-phenylpropanamide], the inhibition at 1 µM in experiment [4] turned out to be 20%; in experiment [6] it was 11%; in experiment [8] it was 22%; in experiment [10] it was 61%; in [11] it was 22%. In addition, the IC50 in experiment [13] is 15.5 nM.

The compound `COC(=O)c1cc2c(N3CCN(CCCCN4C(=O)c5ccccc5S4(=O)=O)CC3)cccc2[nH]1` [SDZ-216525] showed an IC50 in experiment [3] of 5 nM.

As to `NC[C@H](O)c1ccc(O)c(O)c1` [noradrenaline], the “displacement of hippocampal” value in [1] (setting [15]) was “ineffective”.

With `O=C1CN=C(c2ccccc2Cl)c2cc([N+](=O)[O-])ccc2N1` [clonazepam], the “displacement of hippocampal” value in experiment [1] (setting [16]) is “ineffective”.

`NCCc1ccc(O)c(O)c1` [dopamine]: the “displacement of hippocampal” value in experiment [1] (setting [15]) is reported as “ineffective”.

(Values after patent US6056942A, “5-HT1A ligands” (John Wyeth & Brother, Ltd., priority 1993, dated 2000).)
